# Experimental data published in patent publication US12338263B2, “Antibacterial aminoglycoside derivatives” (priority 2019, dated 2025).
# Where two headings read alike, the source gives them in different places.
# Assays:
# [1] = test system: auditory function in guinea pigs; assay: Auditory safety: compound action potential (CAP) in guinea pigs; type: in vivo
# Method: (§1) Healthy adult guinea pigs (150-250 g) were employed as the research objects, and were randomly divided into saline control group, gentamicin group, compound Plazomicin group and Compound 1 group, with 8 animals in each group. Subcutaneous administration is used, and the following assays were carried out during and after the administration for 14 consecutive days: • 1. To analyze the effects of different drugs on the auditory function of guinea pigs, the compound action potential (CAP) of animals was recorded on the 14th day (29th day, i.e., 4 weeks) after administration. The results obtained were analyzed and the changes of the threshold shift, amplitude, latency and other indicators among different treatment groups were compared. • 2. After the different groups of animals were processed and the auditory function data thereof were collected, the cochlea of the animals was taken out for fixation and staining. Surface preparation of basilar membrane of the cochlea on one side was performed to count the loss of hair cells so as to make a cochlea map, and the cochlea on the other side was decalcified and frozen sectioned. The density of spiral ganglion neurons was counted and compared among groups. Research Results: 1. Administration Method and Treatment
# (§2) Gentamicin from Dalian Meilun Biotechnology Co., Ltd., and Plazomicin and Compound 1 from WuXi AppTec (WuHan) Co., Ltd. are used, the solution of which were prepared just before use each time by using saline for dissolution to the concentration of 50 mg/mL, and the injection dose was 100 mg/kg body weight. Method: subcutaneous injection, and confirmation of no liquid leakage after each injection.
# The compound action potential (CAP) was tested and recorded when clicks and different frequencies of pure tones (1 KHz-32 kHz) were applied to each group of animals, and variations in amplitude and latency were mainly compared when clicks and medium and high frequency pure tones (16, 32 kHz) were applied. The magnitude of amplitude reflects the responsiveness of hair cells and auditory nerves. The larger the amplitude and the greater the slope of the I/O curve were, the better the responsiveness and the better the function were. In addition, the cochlea from apical turn to basal turn was responsive to sounds from low-frequency to high-frequency respectively, which is the frequency correspondence of the cochlear basilar membrane. The functional changes to different frequencies correspond to the different structural and functional changes of the cochlea fromapical turn to basal turn. The length of latency was also related to the function of the hair cells and auditory nerve response. Generally speaking, increasing of the threshold value when the cochlea was injured would inevitably lead to the extension of latency. […] In other words, the extension of latency reflected the decrease of response function. The previous ototoxicity of aminoglycoside antibiotics was mainly concentrated in the high-frequency area. In this study, the gentamicin group was consistent with previous results, as summarized below.
# cochlear hair cells = assay: Auditory safety: hair cell staining and counting on the basilar membrane of the cochlea; type: in vivo, guinea pigs
# Method: as §1, §2
# In order to compare the effects of different drugs on hair cells, hair cell staining and counting on the whole basilar membrane of the cochlea are performed. […] The Plazomicin group had 11.2-28.1% loss of outer hair cells in the high frequency (70-100% from the apical turn) and 16.7-24.2% loss of the outer hair cells at the beginning of the apical turn (10-20%). However, in the Compound 1 group, the loss of outer hair cells only occurred in the low-frequency region (from the top turn −40%), in which the loss rate of outer hair cells was about 2.5-11%, and the outer hair cells were relatively intact in the high frequency area (see FIG. 6 B).
# spiral ganglion neurons = assay: Auditory safety: density of spiral ganglion neurons; type: in vivo, guinea pigs
# Method: as §1, §2
# The cochlea of the guinea pig was defined as Turn 1, Turn 2, Turn 3, and Turn 4 from the basal to the apical turn. The spiral ganglion neurons (SGNs) were stained with TuJ on frozen sections, and the density thereof in a specific area were counted and compared between groups. […] Through the two-way ANOVA, there was a significant difference between the groups, F(3, 74)=35.43, p<0.0001 (see FIG. 7).
# [2] = Toxicity test on HK-2 cells (Alma Blue); type: cell-based; settings: human
# Method: (§3) On the day of the experiment, when the HK-2 cells in the culture flask reached 80%-90% confluent, the culture medium was discarded, the cells were washed twice with Dulbecco's phosphate buffered saline (DPBS) and digested for 1 to 2 minutes with 3 mL trypsin (T150 cell culture flask), and immediately 9 ml complete medium (RPMI1640+10% FBS) were added to terminate the digestion. After termination, single cells suspension were formed by pipetting gently, which were centrifuged at 1000 […] for 5 minutes. The supernatant was discarded, and fresh complete medium were added, and the cells were pipetted evenly. The actual cell density was measured according to the cell counter and the cell suspension was adjusted to 2.5×10^5 cells/mL. 80 μL of cell suspension was drawn by a row pipettor and added into a 96-well black bottom plate (2×10^4 cell/well), and then incubated in a carbon dioxide incubator for 4.5 hours, which was defined as a cell plate.
# (§4) • a. The compound mother liquor was prepared according to the following table, with complete medium as the solvent;
# (§5) • b. 50 microliters of complete medium was added into columns 3-11 in the 96-v well plate; • c. 75 microliters of test compound (50 mg/mL) and positive control were added to the second column of the 96-v well plate; • d. 25 microliters of compound was drawn from the second column and added into the third column, blown and sucked a few times by a row pipettor, then 25 microliters of liquid was drawn from the third column and added to the fourth column, and subsequently subjected to a 3-fold series dilution until the 10th column. From column 2 to column 11, the compound concentration was 50, 16.67, 5.56, 1.85, 0.62, 0.21, 0.07, 0.02, 0.008, 0 mg/mL; • e. 20 μL compound solutions of various concentrations prepared were transferred by a row pipettor to the corresponding wells of the cell plate, which was defined as a testing plate. Culture of the Testing Plate:
# (§6) All the plates were incubated in an incubator at 37° C., 5% CO2 for 43 hours.
# (§7) After incubation, 10 microliters of Alma Blue was added to the testing plate. The testing plate was immediately incubated in an incubator at 37° C., 5% CO2 for 3 hours. Then the fluorescence value of each well of the testing plate was read by a microplate reader (wavelength Ex 540 nm/Em 585 nm). Then prism software was used to simulate the curve to calculate CC50 value.
# HK-2 cells = assay: Toxicity test on HK-2 cells (Alma Blue); type: cell-based; settings: for Maximum inhibition rate: 43 hours incubation plus 3 hours Alma Blue
# Method: as §3, §4, §5, §6, §7
# [3] = test system: Klebsiella pneumoniae ATCC-BAA-1705; assay: Drug efficacy in mice (mouse pneumonia model); type: in vivo; settings: CD-1 mice, 10 mpk and 30 mpk subcutaneously 2 h and 10 h after infection, read at 24 h; FIG. 2
# Method: 21 CD-1 mice were divided into 7 cages, 3 mice per cage, and were injected intraperitoneally with the immunosuppressant cyclophosphamide (150 mpk) on the 4th day.
# On the first day, 7 cages of mice were injected intraperitoneally again with the immunosuppressant cyclophosphamide (100 mpk). The strain Kpn ATCC-BAA-1705 (Klebsiella pneumoniae ATCC-BAA-1705) was recovered on a MHA plate. The recovered colonies were picked and dissolved in saline to prepare Kpn ATCC-BAA-1705 bacterial solution with a concentration of 4.00E+08 CFU/mL for later use in mouse lung infection. The amount of bacterial solution infected in the lung of experimental mice was 50 μL/mouse, that is, the inoculation amount was 2.00E+07 CFU/mouse. At 2 h and 24 h infection, the lung tissue of the mice in control group was taken and placed in 5 mL saline, homogenized, and dotted on a plate with gradient dilution.
# The specific administration of mice was as follows: • (1) 2 h after infection: At the end of 2 h after infection, the lung tissue of the mice in the first cage was taken and placed in 5 mL saline, homogenized, and dotted on a plate with gradient dilution, two duplications for each mouse. The amount of bacteria loaded in the lung tissue of the mouse was counted. Mice in the third and fourth cages were injected respectively with 30 mpk and 10 mpk compound Plazomicin subcutaneously, mice in the fifth and sixth cages were injected respectively with 30 mpk and 10 mpk compound subcutaneously, and mice in the seventh cage were injected with 100 mpk meropenem subcutaneously. • (2) 10 h after infection: Mice in the third and fourth cages were injected respectively with 30 mpk and 10 mpk plazomicin subcutaneously, mice in the fifth and sixth cages were injected respectively with 30 mpk and 10 mpk compound 1 subcutaneously, and mice in the seventh cage were injected with 100 mpk meropenem subcutaneously. At the end of 24 h infection, the lung tissue of the mice in the second to seventh cages was taken and placed in 5 mL saline, homogenized, and dotted on a plate with gradient dilution, two duplications for each mouse. The amount of bacteria carried in the lung tissue of the mouse was counted, and the experimental results were summarized and shown in FIG. 2.
# [4] = position 10 (% from the apical turn)
# [5] = position 20 (% from the apical turn)
# [6] = position 30 (% from the apical turn)
# [7] = position 40 (% from the apical turn)
# [8] = position 50 (% from the apical turn)
# [9] = position 60 (% from the apical turn)
# [10] = position 70 (% from the apical turn)
# [11] = position 80 (% from the apical turn)
# [12] = position 90 (% from the apical turn)
# [13] = position 100 (% from the apical turn)
# [14] = 43 hours incubation plus 3 hours Alma Blue, read-out: CC50 of HK-2 cell
# [15] = predicted from toxicity regression curve, read-out: CC50 of compound on cells predicted by software (Prism)
# [16] = guinea pig, in vivo, sc, 100 mg/kg
# [17] = guinea pig, in vivo, sc, 100 mg/kg, 29 day
molecule,measurement,setting,value
Gentamicin,CAP amplitude at 16 kHz,"[1]; guinea pigs, 100 mg/kg subcutaneous 14 days, 29th day, 16 kHz, 90 dB",373.329±15.332 uv
same,CAP amplitude at 32 kHz,"[1]; guinea pigs, 100 mg/kg subcutaneous 14 days, 29th day, 32 kHz, 90 dB",31.272±5.137 uv
same,CAP amplitude under click,"[1]; guinea pigs, 100 mg/kg subcutaneous 14 days, 29th day, click",consistent with the Control group
same,hearing damage (CAP amplitude) at 32 kHz,"[1]; guinea pigs, 100 mg/kg subcutaneous for 14 consecutive days, 29th day, 32 kHz",74.3%
same,loss of outer hair cells,cochlear hair cells; medium and high frequency region (60-100% from the apical turn),12-67.7%
same,loss of inner hair cells,cochlear hair cells; near the end of the basal turn (100% from the apical turn),9.3±4.1%
same,Damage of inner hair cells on Day 29,cochlear hair cells; [4],0%
same,Damage of outer ear hair cells on Day 29,cochlear hair cells; [4],9.5 ± 2.9%
same,Damage of inner hair cells on Day 29,cochlear hair cells; [5],0%
same,Damage of outer ear hair cells on Day 29,cochlear hair cells; [5],4.1 ± 0.7%
same,Damage of inner hair cells on Day 29,cochlear hair cells; [6],0%
same,Damage of outer ear hair cells on Day 29,cochlear hair cells; [6],2.7 ± 0.7%
same,Damage of inner hair cells on Day 29,cochlear hair cells; [7],0%
same,Damage of outer ear hair cells on Day 29,cochlear hair cells; [7],3.2 ± 1.0%
same,Damage of inner hair cells on Day 29,cochlear hair cells; [8],0%
same,Damage of outer ear hair cells on Day 29,cochlear hair cells; [8],3.2 ± 1.5%
same,Damage of inner hair cells on Day 29,cochlear hair cells; [9],0.4 ± 0.4%
same,Damage of outer ear hair cells on Day 29,cochlear hair cells; [9],12.6 ± 5.6%
same,Damage of inner hair cells on Day 29,cochlear hair cells; [10],0.6 ± 0.6%
same,Damage of outer ear hair cells on Day 29,cochlear hair cells; [10],13.6 ± 6.1%
same,Damage of inner hair cells on Day 29,cochlear hair cells; [11],0.2 ± 0.2%
same,Damage of outer ear hair cells on Day 29,cochlear hair cells; [11],12.0 ± 5.4%
same,Damage of inner hair cells on Day 29,cochlear hair cells; [12],2.5 ± 1.7%
same,Damage of outer ear hair cells on Day 29,cochlear hair cells; [12],42.8 ± 8.2%
same,Damage of inner hair cells on Day 29,cochlear hair cells; [13],9.3 ± 4.1%
same,Damage of outer ear hair cells on Day 29,cochlear hair cells; [13],67.7 ± 9.8%
same,Density of spiral ganglion neurons on Day 29,spiral ganglion neurons; Turn 1 (basal turn),4.407 ± 0.517 n/10000 μm^2
same,Density of spiral ganglion neurons on Day 29,spiral ganglion neurons; Turn 2,5.540 ± 0.757 n/10000 μm^2
same,Density of spiral ganglion neurons on Day 29,spiral ganglion neurons; Turn 3,4.604 ± 0.598 n/10000 μm^2
same,Density of spiral ganglion neurons on Day 29,spiral ganglion neurons; Turn 4 (apical turn),5.259 ± 0.280 n/10000 μm^2
same,damage to spiral ganglion neurons (SGN density vs Control group),"spiral ganglion neurons; guinea pigs, 100 mg/kg subcutaneous 14 days, FIG. 7",obvious damage in each turn
NCC[C@H](O)C(=O)N[C@@H]1C[C@H](N)[C@@H](O[C@H]2O[C@H](CN)[C@@H](O)[C@H](O)[C@H]2O)[C@H](O)[C@H]1O[C@H]1O[C@H](CO)[C@@H](O)[C@H](N)[C@H]1O [Amikacin],CC50 at 43 h,[2]; [14],8.16 mg/mL
same,CC50 at 43 h,[2]; [15],8.16 mg/mL
same,Maximum inhibition rate,HK-2 cells,68.40%
CN[C@@H]1[C@@H](O)[C@@H](O[C@@H]2[C@@H](O)[C@H](O[C@H]3OC(CNCCO)=CC[C@H]3N)[C@@H](N)C[C@H]2NC(=O)[C@@H](O)CCN)OC[C@]1(C)O [Plazomicin],in vivo activity in lung infection model (bacteria in lung tissue),[3],good in vivo activity
same,CAP amplitude under click,[1]; [16],caused hearing damage
same,CAP amplitude at 16 kHz,[1]; [17],282.058±22.569 uv
same,CAP amplitude at 32 kHz,[1]; [17],62.982±7.561 uv
same,hearing damage (CAP amplitude) at 16 kHz,[1]; [17],25.9%
same,hearing damage (CAP amplitude) at 32 kHz,[1]; [17],48.2%
same,loss of inner hair cells,"cochlear hair cells; guinea pig, in vivo, 29 day",3.5±3.0%
same,damage to spiral ganglion neurons (SGN density vs Control group),spiral ganglion neurons; [16],decrease in SGN density near the apical turn
same,CC50 at 43 h,[2]; [14],> 10 mg/mL
same,CC50 at 43 h,[2]; [15],19.5 mg/mL
same,toxicity to HK-2 cells compared with Netilmicin and Amikacin,HK-2 cells,significantly lower than that of Netilmicin and Amikacin
same,Maximum inhibition rate,HK-2 cells,35.98%
CCN[C@@H]1C[C@H](N)[C@@H](O[C@H]2OC(CN)=CC[C@H]2N)[C@H](O)[C@H]1O[C@H]1OC[C@](C)(O)[C@H](NC)[C@H]1O [Netilmicin],CC50 at 43 h,[2]; [14],10.6 mg/mL
same,CC50 at 43 h,[2]; [15],10.6 mg/mL
same,Maximum inhibition rate,HK-2 cells,48.73%
